Values of other authors in patent US20060116369A1, “Certain compounds, compositions, and methods” (priority 2004, published 2006).

Tested on: A549 cells
Settings: data provided by National Cancer Institute, Developmental Therapeutic Program

SMILES | GI50 [nM]
O=c1[nH]cc(F)c(=O)[nH]1 [5-fluorouracil] | 1000
CC(=O)O[C@H]1C(=O)[C@@]2(C)[C@H]([C@H](OC(=O)c3ccccc3)[C@]3(O)C[C@H](OC(=O)[C@H](O)[C@@H](NC(=O)c4ccccc4)c4ccccc4)C(C)=C1C3(C)C)[C@]1(OC(C)=O)CO[C@@H]1C[C@@H]2O [paclitaxel] | 4
NC(=O)NO [hydroxyurea] | 500000
COc1cccc2c1C(=O)c1c(O)c3c(c(O)c1C2=O)C[C@@](O)(C(=O)CO)C[C@@H]3O[C@H]1C[C@H](N)[C@H](O)[C@H](C)O1 [doxorubicin] | 63
